Source: ChEMBL document CHEMBL1148316, “Discovery of 5-(4-chlorophenyl)-1-(2,4-dichlorophenyl)-3-hexyl-1h-1,2,4-triazole, a novel in vivo cannabinoid antagonist containing a 1,2,4-triazole motif” (J Med Chem, 2004)
The source made the active and inactive calls. The calls are words filed in the database; no cut-off is given here.

Columns and labels:
Assay type in all cases: functional
[1] = species: Cavia porcellus; assay: Effect on electrically evoked contractions in […] plexus longitudinal muscles of guinea pig at 10E-8 to 2.4E-6 M; No effect; conditions: Muscle tissue
[2] = species: Mus musculus; assay: Effect on electrically evoked contractions in mouse vas deferens at 10E-8 to 10E-6 M concentration; No effect
[3] = Effect on cannabinoid tetrad (nociception, temperature, spontaneous motility and catalepsy) of behavioral test; no significant effect
[4] = Effect on cannabinoid tetrad (nociception, temperature, spontaneous motility and catalepsy) of behavioral test; induce catalepsy
[5] = Effect on cannabinoid tetrad (nociception, temperature, spontaneous motility and catalepsy) of behavioral test; inhibit spontaneous motility
[6] = Effect on cannabinoid tetrad (nociception, temperature, spontaneous motility and catalepsy) of behavioral test; induce antinociception
[7] = Effect on cannabinoid tetrad (nociception, temperature, spontaneous motility and catalepsy) of behavioral test; induce hypothermia

| Structure (SMILES) | Activity [1] | Activity [2] | further results |
| --- | --- | --- | --- |
| CCCCCCc1nc(-c2ccc(Cl)cc2)n(-c2ccc(Cl)cc2Cl)n1 | inactive | inactive | Activity [3]: inactive |
| CCc1nc(-c2ccc(Cl)cc2)n(-c2ccc(Cl)cc2)n1 | inactive | inactive | – |
| CCCCCCc1nc(-c2ccc(Cl)cc2)n(-c2ccc(Cl)cc2)n1 | inactive | inactive | – |
| Cc1c(C(=O)c2cccc3ccccc23)c2cccc3c2n1[C@H](CN1CCOCC1)CO3 | – | – | Activity [4]: Active; Activity [5]: Active; Activity [6]: Active; Activity [7]: Active |
| CCCCCCCc1nc(-c2ccccc2)n(-c2ccccc2)n1 | inactive | inactive | – |
| CCCCCCc1nc(-c2ccc(Cl)cc2Cl)n(-c2ccc(Cl)cc2Cl)n1 | inactive | inactive | – |
| CCc1nc(-c2ccc(Cl)cc2)n(-c2ccccc2)n1 | inactive | inactive | – |
